# Patent publication US20220289708A1, “SUBSTITUTED N-PHENYL URACILS, SALTS THEREOF AND THEIR USE AS HERBICIDAL AGENTS” (Bayer Aktiengesellschaft, priority 2019, published 2022)
# Tests used:
# Assay type in all cases: in vivo
# [1] = tested on: Oryza sativa; experiment: Post-emergence crop plant compatibility; details: application rate 5 g/ha
# In short: (§1)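 Greenhouse crop plants in sandy loam sprayed at one-leaf stage (2-3 weeks after sowing) with WP or EC formulations plus 0.5% additive, 600 l/ha water, at 5 g/ha or 20 g/ha. Damage scored visually after about 3 weeks as % versus untreated controls (100% = plants dead).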
# [2] = tested on: Triticum aestivum; experiment: Post-emergence crop plant compatibility; details: application rate 5 g/ha
# In short: as §1
# [3] = tested on: Zea mays; experiment: Post-emergence crop plant compatibility; details: application rate 5 g/ha
# In short: as §1
# [4] = tested on: Setaria viridis; experiment: Post-emergence herbicidal action; details: application rate 5 g/ha, rated visually after about 3 weeks vs untreated controls
# In short: (§2)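 Percent activity, judged by eye about 3 weeks after treatment relative to untreated plants, ranges from 0% (as control) to 100% (plants dead). Foliar application at 20 g/ha and less was made at the one-leaf stage using a 600 l/ha aqueous spray containing 0.5% additive.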
# [5] = tested on: Veronica persica; experiment: Post-emergence herbicidal action; details: application rate 5 g/ha
# In short: as §2
# [6] = tested on: Abutilon theophrasti; experiment: Post-emergence herbicidal action; details: application rate 5 g/ha, rated visually after about 3 weeks vs untreated controls
# In short: as §2
# [7] = tested on: Polygonum convolvulus; experiment: Post-emergence herbicidal action; details: application rate 5 g/ha
# In short: as §2
# [8] = tested on: Hordeum murinum; experiment: Post-emergence herbicidal action; details: application rate 20 g/ha
# In short: as §2
# [9] = tested on: Pharbitis purpurea; experiment: Post-emergence herbicidal action; details: application rate 5 g/ha, rated visually after about 3 weeks vs untreated controls
# In short: as §2
# [10] = tested on: Amaranthus retroflexus; experiment: Post-emergence herbicidal action; details: application rate 5 g/ha, rated visually after about 3 weeks vs untreated controls
# In short: as §2
# [11] = tested on: Alopecurus myosuroides; experiment: Post-emergence herbicidal action; details: application rate 5 g/ha, rated visually after about 3 weeks vs untreated controls
# In short: as §2
# [12] = tested on: Digitaria sanguinalis; experiment: Post-emergence herbicidal action; details: application rate 5 g/ha, rated visually after about 3 weeks vs untreated controls
# In short: as §2
# [13] = tested on: Matricaria inodora; experiment: Post-emergence herbicidal action; details: rated visually after about 3 weeks vs untreated controls
# In short: as §2
# [14] = tested on: Viola tricolor; experiment: Post-emergence herbicidal action; details: application rate 5 g/ha
# In short: as §2
# [15] = tested on: Avena fatua; experiment: Post-emergence herbicidal action; details: application rate 20 g/ha, rated visually after about 3 weeks vs untreated controls
# In short: as §2
# [16] = tested on: Echinochloa crus-galli; experiment: Post-emergence herbicidal action; details: application rate 5 g/ha, rated visually after about 3 weeks vs untreated controls
# In short: as §2
# [17] = tested on: Stellaria media; experiment: Post-emergence herbicidal action; details: application rate 5 g/ha, rated visually after about 3 weeks vs untreated controls
# In short: as §2
# [18] = tested on: Zea mays; experiment: Pre-emergence crop plant compatibility; details: application rate 20 g/ha
# Text: B. Pre-Emergence Herbicidal Action and Crop Plant Compatibility
# (§3) Seeds of monocotyledonous and dicotyledonous weed plants and crop plants were placed in plastic or organic planting pots and covered with soil. The compounds of the invention, formulated in the form of wettable powders (WP) or as emulsion concentrates (EC), were then applied to the surface of the covering soil as aqueous suspension or emulsion with addition of 0.5% additive at a water application rate equivalent to 600 l/ha (converted). After the treatment, the pots were placed in a greenhouse and kept under good growth conditions for the test plants. After about 3 weeks, the effect of the preparations was scored visually in comparison with untreated controls as percentages. For example, 100% activity=the plants have died, 0% activity=like control plants.
# Tables B14 to B16 below show the crop plant compatibilities of selected compounds of the general formula (I) according to Tables I.1 to I.36 at an application rate corresponding to 20 g/ha, which were obtained in experiments according to the experimental procedure mentioned above. Here, the observed effects on selected crop plants are stated in comparison to the untreated controls (values in %).
# [19] = tested on: Setaria viridis; experiment: Pre-emergence herbicidal action; details: application rate 20 g/ha
# Text: as §3, with “B. Pre-Emergence Herbicidal Action and Crop Plant Compatibility Seeds of” for “Seeds of”, “control plants. Tables B1 to B13 below show the effects of selected compounds of the general formula (I) according to Tables I.1 to I.36 on various harmful plants and at an application rate corresponding to 80 g/ha or less, which were obtained by the experimental procedure mentioned above.” for “control plants.”
# [20] = tested on: Veronica persica; experiment: Pre-emergence herbicidal action; details: application rate 20 g/ha
# Text: as §3, with “B. Pre-Emergence Herbicidal Action and Crop Plant Compatibility Seeds of” for “Seeds of”, “control plants. Tables B1 to B13 below show the effects of selected compounds of the general formula (I) according to Tables I.1 to I.36 on various harmful plants and at an application rate corresponding to 80 g/ha or less, which were obtained by the experimental procedure mentioned above.” for “control plants.”
# [21] = tested on: Lolium rigidum; experiment: Pre-emergence herbicidal action; details: application rate 80 g/ha
# Text: as §3, with “B. Pre-Emergence Herbicidal Action and Crop Plant Compatibility Seeds of” for “Seeds of”, “control plants. Tables B1 to B13 below show the effects of selected compounds of the general formula (I) according to Tables I.1 to I.36 on various harmful plants and at an application rate corresponding to 80 g/ha or less, which were obtained by the experimental procedure mentioned above.” for “control plants.”
# [22] = tested on: Abutilon theophrasti; experiment: Pre-emergence herbicidal action; details: application rate 20 g/ha
# Text: as §3, with “B. Pre-Emergence Herbicidal Action and Crop Plant Compatibility Seeds of” for “Seeds of”, “control plants. Tables B1 to B13 below show the effects of selected compounds of the general formula (I) according to Tables I.1 to I.36 on various harmful plants and at an application rate corresponding to 80 g/ha or less, which were obtained by the experimental procedure mentioned above.” for “control plants.”
# [23] = tested on: Polygonum convolvulus; experiment: Pre-emergence herbicidal action; details: application rate 20 g/ha
# Text: as §3, with “B. Pre-Emergence Herbicidal Action and Crop Plant Compatibility Seeds of” for “Seeds of”, “control plants. Tables B1 to B13 below show the effects of selected compounds of the general formula (I) according to Tables I.1 to I.36 on various harmful plants and at an application rate corresponding to 80 g/ha or less, which were obtained by the experimental procedure mentioned above.” for “control plants.”
# [24] = tested on: Pharbitis purpurea; experiment: Pre-emergence herbicidal action; details: application rate 20 g/ha
# Text: as §3, with “B. Pre-Emergence Herbicidal Action and Crop Plant Compatibility Seeds of” for “Seeds of”, “control plants. Tables B1 to B13 below show the effects of selected compounds of the general formula (I) according to Tables I.1 to I.36 on various harmful plants and at an application rate corresponding to 80 g/ha or less, which were obtained by the experimental procedure mentioned above.” for “control plants.”
# [25] = tested on: Amaranthus retroflexus; experiment: Pre-emergence herbicidal action; details: application rate 20 g/ha
# Text: as §3, with “B. Pre-Emergence Herbicidal Action and Crop Plant Compatibility Seeds of” for “Seeds of”, “control plants. Tables B1 to B13 below show the effects of selected compounds of the general formula (I) according to Tables I.1 to I.36 on various harmful plants and at an application rate corresponding to 80 g/ha or less, which were obtained by the experimental procedure mentioned above.” for “control plants.”
# [26] = tested on: Alopecurus myosuroides; experiment: Pre-emergence herbicidal action; details: application rate 80 g/ha
# Text: as §3, with “B. Pre-Emergence Herbicidal Action and Crop Plant Compatibility Seeds of” for “Seeds of”, “control plants. Tables B1 to B13 below show the effects of selected compounds of the general formula (I) according to Tables I.1 to I.36 on various harmful plants and at an application rate corresponding to 80 g/ha or less, which were obtained by the experimental procedure mentioned above.” for “control plants.”
# [27] = tested on: Digitaria sanguinalis; experiment: Pre-emergence herbicidal action; details: application rate 20 g/ha
# Text: as §3, with “B. Pre-Emergence Herbicidal Action and Crop Plant Compatibility Seeds of” for “Seeds of”, “control plants. Tables B1 to B13 below show the effects of selected compounds of the general formula (I) according to Tables I.1 to I.36 on various harmful plants and at an application rate corresponding to 80 g/ha or less, which were obtained by the experimental procedure mentioned above.” for “control plants.”
# [28] = tested on: Matricaria inodora; experiment: Pre-emergence herbicidal action; details: application rate 20 g/ha
# Text: as §3, with “B. Pre-Emergence Herbicidal Action and Crop Plant Compatibility Seeds of” for “Seeds of”, “control plants. Tables B1 to B13 below show the effects of selected compounds of the general formula (I) according to Tables I.1 to I.36 on various harmful plants and at an application rate corresponding to 80 g/ha or less, which were obtained by the experimental procedure mentioned above.” for “control plants.”
# [29] = tested on: Viola tricolor; experiment: Pre-emergence herbicidal action; details: application rate 20 g/ha
# Text: as §3, with “B. Pre-Emergence Herbicidal Action and Crop Plant Compatibility Seeds of” for “Seeds of”, “control plants. Tables B1 to B13 below show the effects of selected compounds of the general formula (I) according to Tables I.1 to I.36 on various harmful plants and at an application rate corresponding to 80 g/ha or less, which were obtained by the experimental procedure mentioned above.” for “control plants.”
# [30] = tested on: Avena fatua; experiment: Pre-emergence herbicidal action; details: application rate 80 g/ha
# Text: as §3, with “B. Pre-Emergence Herbicidal Action and Crop Plant Compatibility Seeds of” for “Seeds of”, “control plants. Tables B1 to B13 below show the effects of selected compounds of the general formula (I) according to Tables I.1 to I.36 on various harmful plants and at an application rate corresponding to 80 g/ha or less, which were obtained by the experimental procedure mentioned above.” for “control plants.”
# [31] = tested on: Echinochloa crus-galli; experiment: Pre-emergence herbicidal action; details: application rate 80 g/ha
# Text: as §3, with “B. Pre-Emergence Herbicidal Action and Crop Plant Compatibility Seeds of” for “Seeds of”, “control plants. Tables B1 to B13 below show the effects of selected compounds of the general formula (I) according to Tables I.1 to I.36 on various harmful plants and at an application rate corresponding to 80 g/ha or less, which were obtained by the experimental procedure mentioned above.” for “control plants.”
smiles,measurement,setting,value
Cn1c(C(F)(F)F)cc(=O)n(-c2cc(Oc3cccnc3OCC(=O)OCC#N)c(Cl)cc2F)c1=O [I.15-176],Oryza sativa (efficacy in %),[1],20%
same,Triticum aestivum (efficacy in %),[2],20%
same,Zea mays (efficacy in %),[3],20%
same,Setaria viridis (efficacy in %),[4],100%
same,Veronica persica (efficacy in %),[5],90%
same,Abutilon theophrasti (efficacy in %),[6],100%
same,Polygonum convolvulus (efficacy in %),[7],100%
same,Hordeum murinum (efficacy in %),[8],100%
same,Pharbitis purpurea (efficacy in %),[9],100%
same,Amaranthus retroflexus (efficacy in %),[10],100%
same,Alopecurus myosuroides (efficacy in %),[11],80%
same,Digitaria sanguinalis (efficacy in %),[12],100%
same,Matricaria inodora (efficacy in %),[13]; application rate 20 g/ha,100%
same,Viola tricolor (efficacy in %),[14],100%
same,Avena fatua (efficacy in %),[15],90%
same,Echinochloa crus-galli (efficacy in %),[16],100%
same,Stellaria media (efficacy in %),[17],100%
"Cn1c(C(F)(F)F)cc(=O)n(-c2cc(Oc3cccnc3OCC(=O)OCc3ccc(C(F)(F)F)nc3)c(Cl)cc2F)c1=O [I.15-350, [6-(Trifluoromethyl)pyridin-3-yl]methyl [(3-{2-chloro-4-fluoro-5-[3-methyl-2,6-dioxo-4-(trifluoromethyl)-3,6-dihydropyrimidin-1(2H)-yl]phenoxy}pyridin-2-yl)oxy]acetate]",Oryza sativa (efficacy in %),[1],20%
same,Triticum aestivum (efficacy in %),[2],20%
same,Zea mays (efficacy in %),[18],0%
same,Setaria viridis (efficacy in %),[19],100%
same,Veronica persica (efficacy in %),[20],100%
same,Lolium rigidum (efficacy in %),[21],100%
same,Abutilon theophrasti (efficacy in %),[22],100%
same,Polygonum convolvulus (efficacy in %),[23],100%
same,Pharbitis purpurea (efficacy in %),[24],100%
same,Amaranthus retroflexus (efficacy in %),[25],100%
same,Alopecurus myosuroides (efficacy in %),[26],100%
same,Digitaria sanguinalis (efficacy in %),[27],100%
same,Matricaria inodora (efficacy in %),[28],100%
same,Viola tricolor (efficacy in %),[29],100%
same,Avena fatua (efficacy in %),[30],100%
same,Echinochloa crus-galli (efficacy in %),[31],100%
same,Veronica persica (efficacy in %),[5],100%
same,Abutilon theophrasti (efficacy in %),[6],100%
same,Pharbitis purpurea (efficacy in %),[9],100%
same,Amaranthus retroflexus (efficacy in %),[10],100%
same,Matricaria inodora (efficacy in %),[13]; application rate 5 g/ha,80%
same,Echinochloa crus-galli (efficacy in %),[16],100%
